Reference: patent publication US20220264878A1, “HERBICIDAL COMPOSITION CONTAINING R-TYPE PYRIDYLOXY CARBOXYLIC ACID DERIVATIVE AND USE THEREOF” (Qingdao Kingagroot Chemical Compound Co., Ltd., priority 2019, published 2022)
Where two headings read alike, the source gives them in different places.

What was measured:
Format in all cases: in vivo
[1] = test system: Capsella bursa-pastoris; test: Post-emergence foliage spray, pot culture, fresh weight inhibition (Tables 151-206; 20 days); details: Capsella bursa-pastoris, 480 h, read-out: Control effect (%) of A applied alone in corresponding dose
Description: (§1) The above weeds were cultivated by a pot culture method. […] Full and uniform weed seeds were selected, soaked in warm water at 25° C. for 6 hours, and germinated in a 28° C. biochemical incubator (darkness). The weed seeds that had just germinatedwere evenly placed on the surface of the soil and then covered with 0.5-1 cm soil according to the sizes of seeds.
(§2) The technical materials were all dissolved in acetone, and diluted with an aqueous solution containing 0.1% emulsifier Tween-80. The dilution is performed as required.
(§3) A ratio of the active ingredient A to the active ingredient B and amounts thereof in each group depends on the characteristics and toxicity of the two agents, as well as the main application purpose of a corresponding formulation. Based on the pre-tests in this study, the dosage of the active ingredient A and B applied alone and in combination were shown in the tables. Water containing the solvent and emulsifier same with the above groups but free of the agents was used as a blank control.
(§4) In the stage of weeds with 3˜4 leaves, the weeds were thinned out to maintain 15 weeds per pot and 45 weeds for each treatment, then continued to be cultured to 4˜5 leaves stage of grassy weeds, 5˜6 leaves stage of broadleaf weeds, and treated.
(§5) The well-cultured weeds were evenly placed on a platform with an area of 0.5 m^2, and a solution of agents was sprayed on the stems and leaves thereof by the 3WP-2000-type walking spray tower at a dosage of 450 kg/ha and at a spray pressure of 0.3 MPa. After all the solution was sprayed, the valve was closed. After 30 seconds, the door of the spray tower was opened, and the nutritional bowl was taken out. Then the valve was opened, and the spray tube was cleaned by spraying 50 ml of water.
(§6) A pot-culture method was employed. For the cultivation of weeds, please refer to the Section 1.1), and “Pesticide guidelines for laboratory bioactivity tests—herbicides”. As to a method for applying agents, please refer to the section 2.3.2), that is, a foliage treatment was employed. After the treatment, the weeds were routinely cultured in a greenhouse.
(§7) A method for investigating absolute number was employed, wherein whole seedlings of survival weeds were cut off with a blade along the soil surface, and the fresh weight of the weeds was weighed with an analytical balance. For dead weeds, the fresh weight thereof was zero.
(§8) Wherein, in the formula, X represented the fresh weight inhibition rate of the active ingredient A in a dosage of P, and Y represented the fresh weight inhibition rate of the active ingredient B in a dosage of Q.

[2] = test system: Digitaria sanguinalis; test: as above; details: Digitaria sanguinalis, 480 h, read-out: Control effect (%) of A applied alone in corresponding dose
Description: Table 151-206: Digitaria sanguinalis, Amaranthus retroflexus, Conyza Canadensis, Capsella bursa-pastoris, Eleusine indica were collected in Huangdao of Shandong Province, Sinapis arvensis were collected in Sixian of Anhui Province, Alopecurus japonicus were collected in Tianchang of Anhui Province, Veronica didyma were collected in Siyang of Jiangsu Province.
as §1
The culture was carried out in a controllable sunlight greenhouse at 20 to 30° C., in natural light, and relative humidity of 57% to 72%.
as §2, §3
Table 1-48, 51-98, 101-148, 151-206: […] per treatment, that is, a total of 60 weeds were treated in one treatment.
as §4, with “Table 151-206: The agents were used for only once in the experiment. In” for “In”
as §5, §6, §7
Table 151-206: The investigation was performed after 20 days of the treatment for only once.
Theoretical fresh weight inhibition rate of a combination of two active ingredients in each group was calculated by the Gowing method (E0=X+Y−X*Y/100), and then compared with an actually measured inhibition rate (E), thereby effect of the combination (hereafter referred to as combined effect) on weeds was evaluated: the value of E-E0, which was greater than 10%, corresponded to a synergistic effect, the value of E-E0, which was less than −10%, corresponded to an antagonistic effect, and the value of E-E0, which was from −10% to 10%, corresponded to an additional effect.

[3] = test system: Echinochloa crusgalli var. zelayensis; test: Post-emergence foliage spray, pot culture, fresh weight inhibition (Tables 1-48, 51-98, 101-148; 24 days); details: Echinochloa crus-galli, foliar, 576 h, foliage spray, 24 days, read-out: Control effect (%) of B applied alone in corresponding dose
Description: as §1, §2, §3
(§9) In the stage of weeds with 3˜4 leaves, the weeds were thinned out to maintain 15 weeds per pot and 45 weeds for each treatment, then continued to be cultured to 5˜6 leaves stage of grassy weeds, 6˜7 leaves stage of broadleaf weeds, and treated.
as §5, §6, §7, §8

[4] = test system: Echinochloa caudate; test: as above
Description: as §1, §2, §3, §9, §5, §6, §7, §8

[5] = test system: Echinochloa oryzoides; test: as above
Description: as §1, §2, §3, §9, §5, §6, §7, §8

[6] = A alone 75 g a.i./ha, 20 days after treatment
[7] = A alone 150 g a.i./ha, 20 days after treatment

## CCCCCCCCCCCOC(=O)[C@@H](C)Oc1nc(F)c(Cl)c(N)c1Cl [Compound A94]
[1]; A 75 g a.i./ha, 20 days
  pest or weed control at 75 g/ha: 6.2%
[1]; A 150 g a.i./ha, 20 days
  pest or weed control at 150 g/ha: 12.6%
[2]; A 75 g a.i./ha, 20 days
  pest or weed control at 75 g/ha: 23.4%
[2]; A 150 g a.i./ha, 20 days
  pest or weed control at 150 g/ha: 51.7%

## CC(C)=NOC(=O)[C@@H](C)Oc1nc(F)c(Cl)c(N)c1Cl [Compound A130]
[1]; [6]
  pest or weed control at 75 g/ha: 5.4%
[1]; [7]
  pest or weed control at 150 g/ha: 13.2%
[2]; [6]
  pest or weed control at 75 g/ha: 16.7%
[2]; [7]
  pest or weed control at 150 g/ha: 36.8%

## C[C@@H](Oc1nc(F)c(Cl)c(N)c1Cl)C(=O)OCc1ccccc1 [Compound A141]
[1]; A 75 g a.i./ha, 20 days
  pest or weed control at 75 g/ha: 7.8%
[1]; A 150 g a.i./ha, 20 days
  pest or weed control at 150 g/ha: 16.4%
[2]; A 75 g a.i./ha, 20 days
  pest or weed control at 75 g/ha: 27.7%
[2]; A 150 g a.i./ha, 20 days
  pest or weed control at 150 g/ha: 55.8%

## COC(=O)[C@H](Oc1nc(F)c(Cl)c(N)c1Cl)c1ccccc1 [Compound A171]
[1]; A 75 g a.i./ha, 20 days
  pest or weed control at 75 g/ha: 12.2%
[1]; A 150 g a.i./ha, 20 days
  pest or weed control at 150 g/ha: 28.9%
[2]; A 75 g a.i./ha, 20 days
  pest or weed control at 75 g/ha: 19.2%
[2]; A 150 g a.i./ha, 20 days
  pest or weed control at 150 g/ha: 31.9%

## CC[C@@H](Oc1nc(F)c(Cl)c(N)c1Cl)C(=O)OC [Compound A172]
[1]; A 75 g a.i./ha, 20 days
  pest or weed control at 75 g/ha: 22.4%
[1]; A 150 g a.i./ha, 20 days
  pest or weed control at 150 g/ha: 47.9%
[2]; A 75 g a.i./ha, 20 days
  pest or weed control at 75 g/ha: 21.2%
[2]; A 150 g a.i./ha, 20 days
  pest or weed control at 150 g/ha: 38.9%

## COC(=O)[C@@H](C)Oc1ncc(Cl)c(N)c1Cl [Compound A173]
[1]; A 75 g a.i./ha, 20 days
  pest or weed control at 75 g/ha: 24.8%
[1]; A 150 g a.i./ha, 20 days
  pest or weed control at 150 g/ha: 52.4%
[2]; A 75 g a.i./ha, 20 days
  pest or weed control at 75 g/ha: 38.2%
[2]; A 150 g a.i./ha, 20 days
  pest or weed control at 150 g/ha: 73.6%

## C[C@@H](Oc1nc(F)c(Cl)c(N)c1Cl)C(=O)SCc1ccco1 [Compound A211]
[1]; A 75 g a.i./ha, 20 days
  pest or weed control at 75 g/ha: 5.8%
[1]; A 150 g a.i./ha, 20 days
  pest or weed control at 150 g/ha: 14.6%
[2]; A 75 g a.i./ha, 20 days
  pest or weed control at 75 g/ha: 31.3%
[2]; A 150 g a.i./ha, 20 days
  pest or weed control at 150 g/ha: 68.3%

## C[C@@H](Oc1ncc(Br)c(N)c1Br)C(=O)O [Compound A212]
[1]; A 75 g a.i./ha, 20 days
  pest or weed control at 75 g/ha: 8.6%
[1]; A 150 g a.i./ha, 20 days
  pest or weed control at 150 g/ha: 14.5%
[2]; A 75 g a.i./ha, 20 days
  pest or weed control at 75 g/ha: 11.5%
[2]; A 150 g a.i./ha, 20 days
  pest or weed control at 150 g/ha: 24.6%

## Cc1c(F)c(F)c(COC(=O)[C@@H](C)Oc2nc(F)c(Cl)c(N)c2Cl)c(F)c1F [Compound A213]
[1]; [6]
  pest or weed control at 75 g/ha: 14.6%
[1]; [7]
  pest or weed control at 150 g/ha: 26.8%
[2]; [6]
  pest or weed control at 75 g/ha: 14.9%
[2]; [7]
  pest or weed control at 150 g/ha: 31.2%

## CCCCOCCOC(=O)[C@@H](C)Oc1nc(F)c(Cl)c(N)c1Cl [Compound A214]
[1]; [6]
  pest or weed control at 75 g/ha: 24.8%
[1]; [7]
  pest or weed control at 150 g/ha: 46.2%
[2]; [6]
  pest or weed control at 75 g/ha: 21.9%
[2]; [7]
  pest or weed control at 150 g/ha: 44.6%

## COc1cc(OC)nc(Oc2cccc(Oc3nc(OC)cc(OC)n3)c2C(=O)O)n1 [bispyribac-sodium]
[3]; B 1.875 g a.i./ha
  pest or weed control at 1.875 g/ha: 5.3%
[3]; B 3.75 g a.i./ha
  pest or weed control at 3.75 g/ha: 17.4%
[3]; B 7.5 g a.i./ha
  pest or weed control at 7.5 g/ha: 43.4%
[3]; B 15 g a.i./ha
  pest or weed control at 15 g/ha: 62.9%
[4]; Echinochloa, 576 h, bispyribac-sodium 1.875 g a.i./ha, read-out: Control effect (%) of B applied alone in corresponding dose
  pest or weed control at 1.875 g/ha: 5.5%
[4]; Echinochloa, 576 h, bispyribac-sodium 3.75 g a.i./ha, read-out: Control effect (%) of B applied alone in corresponding dose
  pest or weed control at 3.75 g/ha: 16%
[4]; Echinochloa, 576 h, bispyribac-sodium 7.5 g a.i./ha, read-out: Control effect (%) of B applied alone in corresponding dose
  pest or weed control at 7.5 g/ha: 44.9%
[4]; Echinochloa, 576 h, bispyribac-sodium 15 g a.i./ha, read-out: Control effect (%) of B applied alone in corresponding dose
  pest or weed control at 15 g/ha: 62.1%
[5]; Echinochloa oryzoides, 576 h, Table 102, 1.875 g a.i./ha, read-out: Control effect (%) of B applied alone in corresponding dose
  pest or weed control at 1.875 g/ha: 4.7%
[5]; Echinochloa oryzoides, 576 h, Table 102, 3.75 g a.i./ha, read-out: Control effect (%) of B applied alone in corresponding dose
  pest or weed control at 3.75 g/ha: 18.2%
[5]; Echinochloa oryzoides, 576 h, Table 102, 7.5 g a.i./ha, read-out: Control effect (%) of B applied alone in corresponding dose
  pest or weed control at 7.5 g/ha: 44.1%
[5]; Echinochloa oryzoides, 576 h, Table 102, 15 g a.i./ha, read-out: Control effect (%) of B applied alone in corresponding dose
  pest or weed control at 15 g/ha: 62%

## CS(=O)(=O)c1ccc(C(=O)C2C(=O)CCCC2=O)c(Cl)c1COCC1CCCO1 (centres unmarked) [tefuryltrione]
[4]; Table 81, 7.5 g a.i./ha
  Control effect (%) of B applied alone in corresponding dose: 6.8%
[4]; Table 81, 15 g a.i./ha
  Control effect (%) of B applied alone in corresponding dose: 13.1%
[4]; Table 81, 30 g a.i./ha
  Control effect (%) of B applied alone in corresponding dose: 41.3%
[4]; Table 81, 60 g a.i./ha
  Control effect (%) of B applied alone in corresponding dose: 65.4%
[5]; B 7.5 g a.i./ha
  Control effect (%) of B applied alone in corresponding dose: 8.9%
[5]; B 15 g a.i./ha
  Control effect (%) of B applied alone in corresponding dose: 18.8%
[5]; B 30 g a.i./ha
  Control effect (%) of B applied alone in corresponding dose: 46.1%
[5]; B 60 g a.i./ha
  Control effect (%) of B applied alone in corresponding dose: 69.3%

## Cc1cc(C)n(Cc2c(S(C)(=O)=O)ccc(C(=O)c3c(C)nn(C)c3OC(=O)c3cn(C)nc3C)c2Cl)n1 [tripyrasulfone]
[4]; Table 80, 18.75 g a.i./ha
  Control effect (%) of B applied alone in corresponding dose: 4.6%
[4]; Table 80, 37.5 g a.i./ha
  Control effect (%) of B applied alone in corresponding dose: 16.0%
[4]; Table 80, 75 g a.i./ha
  Control effect (%) of B applied alone in corresponding dose: 42.6%
[4]; Table 80, 150 g a.i./ha
  Control effect (%) of B applied alone in corresponding dose: 74.3%
[5]; B 18.75 g a.i./ha
  Control effect (%) of B applied alone in corresponding dose: 8.9%
[5]; B 37.5 g a.i./ha
  Control effect (%) of B applied alone in corresponding dose: 18.0%
[5]; B 75 g a.i./ha
  Control effect (%) of B applied alone in corresponding dose: 44.6%
[5]; B 150 g a.i./ha
  Control effect (%) of B applied alone in corresponding dose: 75.2%
